The results in this text go back to patent US8344135B2, “Heterocyclic compound and use thereof” (Takeda Pharmaceutical Company Limited, priority 2007, dated 2013).

For one assay, the target named is T1, BRAF (V600E) (Homo sapiens, UniProt P15056, V600E).
T1 construct: area encoding the BRAF kinase domain region, so that the protein contains an N-terminal Flag; made in house; host or cells: SF-21 insect cells infected with recombinant baculovirus BAC-V600E
The assay is described as follows: Determination of BRAF (V600E) kinase inhibitory activity. In kind it is biochemical. The following applies: test compound 1.0 μM; substrate GST-MEK1 (K96R); [γ-32P]ATP; read-out: Inhibitory rate (%) at 1.0 μM. The procedure: Determination of BRAF (V600E) Kinase Inhibitory Activity
A test compound (2.5 μL) dissolved in dimethyl sulfoxide (DMSO) was added to 37.5 μL of a reaction solution (25 mM HEPES (pH 7.5), 10 mM magnesium acetate, 1 mM dithiothreitol) containing BRAF (V600E) enzyme (30 ng) and recombinant type protein GST-MEK1 (K96R) 250 ng, and the mixture was incubated at room temperature for 10 min. ATP solution (10 μL, 2.5 μM ATP, 0.1 μCi [γ-^32P]ATP) was added to the obtained mixture, and the mixture was reacted at room temperature for 20 min. The reaction was quenched by adding 50 μL of ice-cooled 20% trichloroacetic acid (Wako Pure Chemical Industries, Ltd.). The reaction solution was allowed to stand at 4° C. for 30 min, and the acid-precipitable fraction was transferred to GF/C filter plate (Millipore Corporation) using cell harvester (PerkinElmer). The plate was dried at 45° C. for 60 min, and 40 μL of MicroScinti 0 (PerkinElmer) was added thereto. The radioactivity was measured using TopCount (PerkinElmer). The kinase inhibitory rate (%) of the test compound was calculated by the following formula: Inhibitory rate (%)=(1−(count of test compound−blank)÷(control−blank))×100
The count of the solution reacted without addition of the compound was used as a “control”, and the count of the solution without the compound and enzyme was used as a “blank”.

The subject of assay [1] is human colon cancer cell HT-29. The assay is described as follows: Colon cancer cell HT-29 growth suppressive action in vitro. The following applies: 72 h, HT-29 cells, 3 days culture, SRB staining, read-out: IC50 (nM), cell growth suppression. In kind it is cell-based. How it is done:
Colon Cancer Cell HT-29 Growth Suppressive Action in vitro
A cell suspension (100 μL, 3,000 cells/well) of human colon cancer cell HT-29 (purchased from ATCC) was plated in a 96-well plate, and the cells were cultured at 37° C. in a 5% carbon dioxide gas incubator. The next day, 2-fold serial dilution of each test compound solution (diluted from maximum concentration 20 μM) (100 μL) was added, and the cells were cultured for 3 days. The culture medium containing the test compound was removed, and the cells were washed with phosphate buffer (PBS). A 50% trichloroacetic acid solution was added to the final concentration of 10% (v/v), and the mixture was stood overnight at 4° C., whereby the cells were fixed to the plate. Then, a dye SRB 0.4% (w/v) solution (dissolved in 1% acetic acid) was added at 50 μl/well, whereby the cell protein was fixed and stained (Skehan et al., Journal Of National Cancer Institute, vol. 82, pp. 1107-1112, 1990). The cells were washed 3 times with 1% acetic acid solution (200 μL/well), and 100 μL of an extract (10 mM Tris buffer) was added to extract the dye. The absorbance at an absorption wavelength […] was measured, and cell amount was measured as a protein amount.
In general terms: Sulforhodamine B stains cellular protein and so reports cell mass.

Usually IC50 stands for the concentration that inhibits the measured activity by half.

T1 sequence (P15056 457-717 V600E limits assumed): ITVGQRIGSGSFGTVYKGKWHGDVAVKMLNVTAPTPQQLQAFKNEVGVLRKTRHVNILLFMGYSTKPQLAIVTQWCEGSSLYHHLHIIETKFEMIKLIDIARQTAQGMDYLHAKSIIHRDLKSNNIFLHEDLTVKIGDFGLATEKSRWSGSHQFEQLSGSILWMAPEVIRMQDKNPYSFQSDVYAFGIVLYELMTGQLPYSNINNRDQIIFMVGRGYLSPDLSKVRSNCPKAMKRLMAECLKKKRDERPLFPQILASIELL

Turning to `COc1ccc(NC(=O)c2cccc(C3(C#N)CC3)c2)cc1Oc1ccc2nc(NC(=O)C3CC3)sc2n1` [Example C1, 3-(1-cyanocyclopropyl)-N-[3-({2-[(cyclopropylcarbonyl)amino][1,3]thiazolo[5,4-b]pyridin-5-yl}oxy)-4-methoxyphenyl]benzamide], the inhibition at 1 µM on BRAF (V600E) was 100%.
Turning to `COc1ccc(NC(=O)c2cccc(C(C)(C)C#N)c2)cc1Oc1ccc2nc(NC(=O)C3CC3)sc2n1` [Example C6, 3-(1-cyano-1-methylethyl)-N-[3-({2-[(cyclopropylcarbonyl)amino][1,3]thiazolo[5,4-b]pyridin-5-yl}oxy)-4-methoxyphenyl]benzamide], the IC50 in assay [1] is below 500 nM.
On to `Cc1ccc(NC(=O)c2cccc(C(F)(F)F)c2)cc1Oc1ccc2nc(NC(=O)C3CC3)sc2n1` [Example C8, N-[3-({2-[(cyclopropylcarbonyl)amino][1,3]thiazolo[5,4-b]pyridin-5-yl}oxy)-4-methylphenyl]-3-(trifluoromethyl)benzamide], for which, at BRAF (V600E), the inhibition at 1 µM came to 99%.
Take `Cc1ccc(NC(=O)c2cccc(C(C)(C)C#N)c2)cc1Oc1ccc2nc(NC(=O)C3CC3)sc2n1` [Example C12, 3-(1-cyano-1-methylethyl)-N-[3-({2-[(cyclopropylcarbonyl)amino][1,3]thiazolo[5,4-b]pyridin-5-yl}oxy)-4-methylphenyl]benzamide]: in assay [1], the IC50 is below 500 nM.
Take `Cc1ccc(NC(=O)c2cccc(C(C)(C)C#N)c2)cc1Oc1ccc2nc(NC(=O)CN3CCN(C)CC3)sc2n1` [Example C15, 3-(1-cyano-1-methylethyl)-N-{4-methyl-3-[(2-{[(4-methylpiperazin-1-yl)acetyl]amino}[1,3]thiazolo[5,4-b]pyridin-5-yl)oxy]phenyl}benzamide]: the IC50 in assay [1] was below 500 nM.
`Cc1ccc(NC(=O)c2cccc(C3(C#N)CC3)c2)cc1Oc1ccc2nc(NC(=O)CO)sc2n1` [Example C17, 3-(1-cyanocyclopropyl)-N-(3-{[2-(glycoloylamino)[1,3]thiazolo[5,4-b]pyridin-5-yl]oxy}-4-methylphenyl)benzamide]: the inhibition at 1 µM at BRAF (V600E) was 99%.
Regarding `Cc1ccc(NC(=O)c2cccc(C3(C#N)CC3)c2)cc1Oc1ccc2nc(NC(=O)CN3CCN(C)CC3)sc2n1` [Example C19, 3-(1-cyanocyclopropyl)-N-{4-methyl-3-[(2-{[(4-methylpiperazin-1-yl)acetyl]amino}[1,3]thiazolo[5,4-b]pyridin-5-yl)oxy]phenyl}benzamide], the IC50 in assay [1] was below 500 nM.
With `O=C(Nc1cccc(Oc2ccc3nc(NC(=O)C4CC4)sc3n2)c1)c1cccc(C(F)(F)F)c1` [Example C20, N-[3-({2-[(cyclopropylcarbonyl)amino][1,3]thiazolo[5,4-b]pyridin-5-yl}oxy)phenyl]-3-(trifluoromethyl)benzamide], at BRAF (V600E), the inhibition at 1 µM was determined as 100%.
As to `CN1CCN(CC(=O)Nc2nc3ccc(Oc4cccc(NC(=O)c5cccc(C(F)(F)F)c5)c4)nc3s2)CC1` [Example C22, N-{3-[(2-{[(4-methylpiperazin-1-yl)acetyl]amino}[1,3]thiazolo[5,4-b]pyridin-5-yl)oxy]phenyl}-3-(trifluoromethyl)benzamide], on BRAF (V600E), the inhibition at 1 µM is 100%.
Consider `CC(C)(C#N)c1cccc(C(=O)Nc2cccc(Oc3ccc4nc(NC(=O)C5CC5)sc4n3)c2)c1` [Example C23, 3-(1-cyano-1-methylethyl)-N-[3-({2-[(cyclopropylcarbonyl)amino][1,3]thiazolo[5,4-b]pyridin-5-yl}oxy)phenyl]benzamide], for which the IC50 in assay [1] is below 500 nM.
On the same count and under the same terms, then `CC(C)(C#N)c1cccc(C(=O)Nc2cccc(Oc3ccc4nc(NC(=O)CO)sc4n3)c2)c1` [Example C24, 3-(1-cyano-1-methylethyl)-N-(3-{[2-(glycoloylamino)[1,3]thiazolo[5,4-b]pyridin-5-yl]oxy}phenyl)benzamide], with below 500 nM.
Regarding `CN1CCN(CC(=O)Nc2nc3ccc(Oc4cccc(NC(=O)c5cccc(C(C)(C)C#N)c5)c4)nc3s2)CC1` [Example C25, 3-(1-cyano-1-methylethyl)-N-{3-[(2-{[(4-methylpiperazin-1-yl)acetyl]amino}[1,3]thiazolo[5,4-b]pyridin-5-yl)oxy]phenyl}benzamide], the inhibition at 1 µM at BRAF (V600E) came out at 100%.
Turning to `CN1CCN(CC(=O)Nc2nc3ccc(Oc4cccc(NC(=O)c5cccc(C6(C#N)CC6)c5)c4)nc3s2)CC1` [Example C28, 3-(1-cyanocyclopropyl)-N-{3-[(2-{[(4-methylpiperazin-1-yl)acetyl]amino}[1,3]thiazolo[5,4-b]pyridin-5-yl)oxy]phenyl}benzamide], the IC50 in assay [1] is below 500 nM.
For the compound `Cc1ccc(Oc2ccc3nc(NC(=O)c4cocn4)sc3n2)cc1NC(=O)c1cccc(C2(C#N)CC2)c1` [Example C30, N-[5-(3-{[3-(1-cyanocyclopropyl)benzoyl]amino}-4-methylphenoxy)[1,3]thiazolo[5,4-b]pyridin-2-yl]-1,3-oxazole-4-carboxamide], the inhibition at 1 µM on BRAF (V600E) turned out to be 100%.
As for `Cc1ccc(Oc2ccc3nc(NC(=O)CO)sc3n2)cc1NC(=O)c1cccc(C(C)(C)C#N)c1` [Example C36, 3-(1-cyano-1-methylethyl)-N-(5-{[2-(glycoloylamino)[1,3]thiazolo[5,4-b]pyridin-5-yl]oxy}-2-methylphenyl)benzamide], the inhibition at 1 µM on BRAF (V600E) was determined as 100%.
`N#CC1(c2cccc(C(=O)Nc3cc(Oc4ccc5nc(NC(=O)C6CC6)sc5n4)ccc3F)c2Cl)CC1` [Example C66, 2-chloro-3-(1-cyanocyclopropyl)-N-[5-({2-[(cyclopropylcarbonyl)amino][1,3]thiazolo[5,4-b]pyridin-5-yl}oxy)-2-fluorophenyl]benzamide]: in assay [1], the half-inhibitory concentration (IC50) was below 500 nM.
Same read-out and setting: then `CCN1CCN(CC(=O)Nc2nc3ccc(Oc4cc(NC(=O)c5cccc(C(C)(C)C#N)c5)ccc4C)nc3s2)CC1` [Example C88, 3-(1-cyano-1-methylethyl)-N-{3-[(2-{[(4-ethylpiperazin-1-yl)acetyl]amino}[1,3]thiazolo[5,4-b]pyridin-5-yl)oxy]-4-methylphenyl}benzamide], with below 500 nM; and `CN(c1ccc(F)c(NC(=O)c2cccc(OC(C)(C)C#N)c2Cl)c1)c1ccc2nc(NC(=O)C3CC3)sc2n1` [Example C122, 2-chloro-3-(1-cyano-1-methylethoxy)-N-{5-[{2-[(cyclopropylcarbonyl)amino][1,3]thiazolo[5,4-b]pyridin-5-yl}(methyl)amino]-2-fluorophenyl}benzamide], with below 500 nM.
The same measure, in the same setting: then `CC(C)(C#N)Oc1cccc(C(=O)Nc2cc(Nc3ccc4nc(NC(=O)C5CC5)sc4n3)ccc2F)c1Cl` [Example C126, 2-chloro-3-(1-cyano-1-methylethoxy)-N-[5-({2-[(cyclopropylcarbonyl)amino][1,3]thiazolo[5,4-b]pyridin-5-yl}amino)-2-fluorophenyl]benzamide], with below 500 nM; and `CN1CCN(CC(=O)Nc2nc3cnc(N(C)c4cccc(NC(=O)c5cccc(C(C)(C)C#N)c5)c4)nc3s2)CC1` [Example D11, 3-(1-cyano-1-methylethyl)-N-{3-[methyl(2-{[(4-methylpiperazin-1-yl)acetyl]amino}[1,3]thiazolo[5,4-d]pyrimidin-5-yl)amino]phenyl}benzamide], with below 500 nM; and `Cc1ccc(NC(=O)c2cccc(C(C)(C)C#N)c2)cc1Nc1ncc2nc(NC(=O)C3CC3)sc2n1` [Example D25, 3-(1-cyano-1-methylethyl)-N-[3-({2-[(cyclopropylcarbonyl)amino][1,3]thiazolo[5,4-d]pyrimidin-5-yl}amino)-4-methylphenyl]benzamide], with below 500 nM.
The same measure, in the same setting: then `Cc1ccc(NC(=O)c2cccc(C(C)(C)C#N)c2)cc1Nc1ncc2nc(NC(=O)CN3CCN(C)CC3)sc2n1` [Example D33, 3-(1-cyano-1-methylethyl)-N-{4-methyl-3-[(2-{[(4-methylpiperazin-1-yl)acetyl]amino}[1,3]thiazolo[5,4-d]pyrimidin-5-yl)amino]phenyl}benzamide], with below 500 nM; and `CC(=O)Nc1nc2cnc(Nc3cc(NC(=O)c4cccc(C(C)(C)C#N)c4Cl)ccc3C)nc2s1` [Example D35, N-(3-{[2-(acetylamino)[1,3]thiazolo[5,4-d]pyrimidin-5-yl]amino}-4-methylphenyl)-2-chloro-3-(1-cyano-1-methylethyl)benzamide], with below 500 nM.
